Assays:
[1] = Levels of Orally Administered Test Compounds in Blood Plasma; format: in vivo, male ICR mice; conditions: oral 25 mg/kg
Description: Each of Compound 3 and MI43 was orally administered to fasted male ICR mice (weighing 18-21 g) in a dose of 25 mg/kg. Blood samples were collected from the mice 5 minutes, 30 minutes, 4 hours, 8 hours and 24 hours after administration (3 mice per point for Compound 3 and 5 mice per point for MI43). These blood samples were centrifuged to obtain blood plasma samples. Each of the blood plasma samples was subjected to the following pretreatment and then analyzed by high-performance liquid chromatography (HPLC). 1.8 ml of a saturated aqueous solution of ammonium sulfate and 1.0 ml of methanol were added to and mixed with 0.2 ml of the blood plasma sample. This mixture was shaken with 3.5 ml of ethyl acetate. After this mixture was centrifuged, the ethyl acetate layer was separated. Moreover, the aqueous layer was shaken with 3.5 ml of ethyl acetate, followed by centrifugation. The ethyl acetate layer thus obtained was combined with the previously separated ethyl acetate layer, and this mixture was evaporated to dryness under reduced pressure. The resulting residue was redissolved in 0.2 ml of a 50% aqueous solution of acetonitrile and used as a sample for HPLC.
The analytical conditions for HPLC (using the CCTD system manufactured by Toso Co., Ltd.) were as follows: A YMC A-312 column (ODS 6×150 mm; manufactured by YMC Co., Ltd.) was used as the column. As the mobile phase, a 60:40 mixture of acetonitrile and 0.1% aqueous TFA was used for Compound 3, and a 40:60 mixture of acetonitrile and 0.1% aqueous TFA was used for MI43. The rest compound was eluted at a flow velocity of 1.0 ml/min and detected by UV light at 244 nm.

[2] = test system: neogenesis of tumor vessels induced by the transplanted mouse tumor S180; assay: Inhibitory Effect on Vascularization Using the Mouse Back Subcutaneous Transplantation Method; format: in vivo, male ICR mouse; conditions: for Vascularization score: 5 days, mean ± SE, control 2.93 ± 0.07
Description: The inhibitory effect of Compounds 1 and 3 in accordance with the present invention on the neogenesis of tumor vessels induced by the transplanted mouse tumor S180 was tested using the mouse back subcutaneous transplantation method. Specifically, 1×10^7 S180 cells were injected into a chamber formed by attaching a Millipore filter having a pore size of 0.45 μm to either side of a Millipore ring. After the injection hole was stopped up, this chamber was transplanted into an air sac formed beneath the skin of the back of a male ICR mouse (9-10 weeks old). Starting from the day of transplantation, a test compound or a solvent control comprising a 0.5% carboxymethylcellulose solution was orally administered for 5 days. After the skin was separated on the fifth day of transplantation, an O-ring of 10 mm internal diameter having the same shape as the Millipore ring was placed on the part of the skin which had been in contact with the chamber, observed under a stereoscopic microscope, and photographed.
In the photographs so taken, the degree of vascularization was rated 0, 1, 2 or 3 according to the number of 3 mm or longer tortuous blood vessels characteristic of tumoral vessels, and scored on the following basis.
0: No tumoral vessel was observed.
1: One tumoral vessel was observed.
2: Two tumoral vessels were observed.
3: Three or more tumoral vessels were observed.

## COc1cc(O)c2c(=O)oc(C(C)C(=O)O)cc2c1 (stereo not shown) [Compound 3, 2-(8-hydroxy-6-methoxy-1-oxo-1H-2-benzopyran-3-yl)propionic Acid]
[1]; mouse, plasma, 5 min, read-out: Concentration of unchanged Compound 3 in blood plasma, mean
  concentration at 5 min: 123 µg/mL
[1]; mouse, plasma, 30 min, read-out: Concentration of unchanged Compound 3 in blood plasma, mean
  concentration at 0.5 h: 131 µg/mL
[1]; mouse, plasma, 4 hr, read-out: Concentration of unchanged Compound 3 in blood plasma, mean
  concentration at 4 h: 63 µg/mL
[1]; mouse, plasma, 8 hr, read-out: Concentration of unchanged Compound 3 in blood plasma, mean
  concentration at 8 h: 38.4 µg/mL
[1]; mouse, plasma, 24 hr, read-out: Concentration of unchanged Compound 3 in blood plasma, mean
  concentration at 24 h: 0.19 µg/mL
[1]; mouse, plasma, unchanged compound, read-out: time of peak / highest plasma level after administration (converted)
  Tmax: 30 min
[1]; 8 hr
  plasma concentration after 8 hours (in words): remained high even after 8 hours
[1]; 24 hr
  plasma concentration after 24 hours (in words): dropped to a vary low level after 24 hours
[2]; oral 0.3 mg/kg, n = 10
  Vascularization score: 2.40 ± 0.4
[2]; oral 1.0 mg/kg, n = 11
  Vascularization score: 1.55 ± 0.43
[2]; oral 3 mg/kg, n = 14
  Vascularization score: 0.86 ± 0.33
[2]; oral 10 mg/kg, n = 14
  Vascularization score: 0.86 ± 0.38
[2]; oral, 1-10 mg/kg body weight
  inhibition of vascularization induced by tumor cell S180 (in words): significantly inhibited vascularization
